Measurements taken from patent publication US6503727B1, “Process for the preparation of an antibiotic” (Gist-Brocades, B.V., priority 1995, dated 2003).
Where two headings read alike, the source gives them in different places.

Assays:
[1] = final pH 4.5, 2 hours, 20° C.
Description: (§1) The following synthetic mixtures were prepared, with a final pH of 4.5:
(§2) After 2 hours' incubation in a shaker incubator (20° C.) samples were taken and the dissolved concentration of each of these components was determined.

[2] = Effect of PGA and AMPI on the solubility of 6-APA (dissolved concentrations in synthetic mixtures); conditions: final pH 4.5, 2 hours, 20° C.
Description: as §1, §2

[3] = Effect of PGA and CEX on the solubility of 7-ADCA (dissolved concentrations in synthetic mixtures); conditions: final pH 4.5, 2 hours, 20° C.
Description: Effect of PGA and PEX on the Solubility of 7-ADCA
The following synthetic mixtures were prepared, with a final pH of 4.5;
3% (m/m) 7-ADCA and 3.0% (m/m) CEX.H2O in water.
as §2

[4] = Example II Mixture 2: 3% (m/m) 6-APA and 0.4% (m/m) PG in water
[5] = Example II Mixture 3: 3% (m/m) 6-APA, 0.4% (m/m) PG and 1.5% (m/m) PGA in water
[6] = Example II Mixture 4: 3% (m/m) 6-APA, 0.4% (m/m) PG, 1.5% (m/m) PGA and 3.0% (m/m) AMPI in water
[7] = Example I Mixture 3: 3% (m/m) 7-ADCA, 0.4% (m/m) PG and 1.5% (m/m) PGA in water
[8] = Example I Mixture 4: 3% (m/m) 7-ADCA, 0.4% (m/m) PC, 1.5% (m/m) PGA and 3.0% (m/m) CEX.H2O in water

Row | dissolved concentration [2, 5] | dissolved concentration [2, 6] | Dissolved Concentrations ([3]; Example I Mixture 2: 3% (m/m) 7-ADCA and 0.4% (m/m) PG in water) | Dissolved Concentrations [3, 7] | Dissolved Concentrations [3, 8] | Compound | Dissolved Concentrations ([1]; Example III Mixture 1: 3% (m/m) 6-APA in water) | Dissolved Concentrations ([1]; Example III Mixture 2: 3% (m/m) 6-APA and 0.5% (m/m) HPG in water) | Dissolved Concentrations ([1]; Example III Mixture 3: 3% (m/m) 6-APA, 0.5% (m/m) HPG and 1.5% (m/m) HPGA in water) | Dissolved Concentrations ([1]; Example III Mixture 4: 3% (m/m) 6-APA, 0.5% (m/m) HPG and 2.0% HPG-Me in water) | Dissolved Concentrations ([1]; Example III Mixture 5: 3% (m/m) 6-APA, 0.5% (m/m) HPG, 1.5% (m/m) HPGA and 3.0% AMOX in water) | Dissolved Concentrations ([1]; Example III Mixture 6: 3.0% (m/m) 6-APA, 0.5% (m/m) HPG, 2.0% (m/m) HPG-Me and 3.0% (m/m) AMOX in water) | dissolved concentration ([2]; Example II Mixture 1: 3% (m/m) 6-APA in water) | dissolved concentration [2, 4]
1 | 0.4 | 0.4 | 0.40 % (m/m) | 0.40 % (m/m) | 0.40 % (m/m) | N[C@@H](C(=O)O)c1ccccc1 [PG, D-phenyl glycine] | – | – | – | – | – | – | – | 0.4
2 | 1.5 | 1.5 | – | 1.5 % (m/m) | 1.5 % (m/m) | NC(=O)[C@H](N)c1ccccc1 [PGA, D-phenyl glycine amide] | – | – | – | – | – | – | – | –

Row | Compound | dissolved concentration [2, 5] | dissolved concentration [2, 6] | Dissolved Concentrations ([3]; Example I Mixture 2: 3% (m/m) 7-ADCA and 0.4% (m/m) PG in water) | Dissolved Concentrations [3, 7] | Dissolved Concentrations [3, 8] | Dissolved Concentrations ([1]; Example III Mixture 1: 3% (m/m) 6-APA in water) | Dissolved Concentrations ([1]; Example III Mixture 2: 3% (m/m) 6-APA and 0.5% (m/m) HPG in water) | Dissolved Concentrations ([1]; Example III Mixture 3: 3% (m/m) 6-APA, 0.5% (m/m) HPG and 1.5% (m/m) HPGA in water) | Dissolved Concentrations ([1]; Example III Mixture 4: 3% (m/m) 6-APA, 0.5% (m/m) HPG and 2.0% HPG-Me in water) | Dissolved Concentrations ([1]; Example III Mixture 5: 3% (m/m) 6-APA, 0.5% (m/m) HPG, 1.5% (m/m) HPGA and 3.0% AMOX in water) | Dissolved Concentrations ([1]; Example III Mixture 6: 3.0% (m/m) 6-APA, 0.5% (m/m) HPG, 2.0% (m/m) HPG-Me and 3.0% (m/m) AMOX in water) | dissolved concentration ([2]; Example II Mixture 1: 3% (m/m) 6-APA in water) | dissolved concentration [2, 4]
3 | CC1(C)S[C@@H]2[C@H](N)C(=O)N2[C@H]1C(=O)O [6-APA, 6-aminopenicillanic acid] | 0.40 | 0.90 | – | – | – | 0.35 % (m/m) | 0.35 % (m/m) | 0.40 % (m/m) | 0.50 % (m/m) | 1.40 % (m/m) | 2.15 % (m/m) | 0.35 | 0.40
